Source: patent US20110153302A1, “IDENTIFICATION OF DRUG EFFECTS ON SIGNALING PATHWAYS USING INTEGER LINEAR PROGRAMMING” (Massachusetts Institute of Technology, priority 2009, published 2011)
“Also recorded” adds a separate entry of the source.

Experiments:
HepG2 cells = assay: Bead-based multiplexed (Luminex xMAP) measurement of 13 key phosphorylation events in cells treated with drugs and ligands; format: cell-based
Description: HepG2 cells were purchased from ATCC (Manassas, Va.), and seeded on 96-well plates coated with collagen type I-coated (BD Biosciences, Franklin Lakes, N.J.) at 30,000 cells/well in DME medium containing 10% Fetal Bovine Serum (FBS). The following morning, cells were starved for 4 hours and treated with inhibitors and/or drugs. Kinase inhibitors were used at concentrations sufficient to inhibit at least 95% the phosphorylation of the nominal target as determined by dose-response assays (presented in [17]). […] was chosen as the nominal target for Lapatinib, Erlotinib, and Gefitinib. The following saturated concentrations were used: p38 (PHA818637, 20 nM), MEK (PD325901, 100 nM) and cMET (JNJ38877605, 1 μM), PI3K (PI-103, 10 μM), Lapatinib at 3 uM [47], Erlotinib at 1 uM [47], Gefitinib at 3 uM [47], and Sorafenib at 3 uM (based on its inhibitory activity on ERK1/2 phosphorylation). Following incubation for 45 minutes with inhibitors and/or drugs cells were treated with saturated levels of 5 ligands: Tumor Necrosis Factor alpha (TNFα) at 100 ng/ml, Interleukin 1 alpha (IL1α) at 10 ng/ml, Insulin (INS) at 2 uM, Transforming Growth Factor (TGFα) at 100 ng/ml, and Hepatocytes Growth Factor (HGF) at 100 ng/ml. Each ligand was added alone or in pairs and cell lysates were collected at 0, 5, and 25 minutes following the cytokine stimulation. The 5 and 25 minutes lysates were mixed together in 1:1 ratio and the mixed lysate was measured as an indicator of the “average early signaling response”. The 5 and 25 minute time points were identified in a preliminary experiment as the optimal time points that maximally captured early phosphorylation activities.
(§1) From each lysate we measured 13 phosphorylation activities that we considered “key phosphorylation events” using a Luminex 200 system (Luminex Corp, Austin, Tex.). The 13-plex phospho-protein bead set from Bio-Rad was used to assay p70S6K (Thr421/Ser424), CREB (Ser133), p38 (Thr180/Tyr182), MEK1 (Ser217/Ser221), JNK (Thr183/Tyr185), HSP27 (Ser78), ERK1/2 (Thr202/Tyr204, Thr185/Tyr187), c-JUN (Ser63), IRS-1 (Ser636/Ser639), IκB-α (Ser32/Ser36), Histone H3 (Ser10), Akt (Ser473), and IR-β (Tyr1146). Data were normalized and plotted using with DataRail. For the construction of the dose response curve in FIG. 3i, HepG2 were starved for 4 hours and then incubated with Gefitinib (from 20 uM down to 27 nM-3 fold dilution) for 45 minutes followed by incubation with IL1α at 10 ng/ml final concentration for 30 minutes. Duplicate lysates were analyzed using the c-JUN (Ser63) beads in the Luminex 200 system.
High-throughput bead-based ELISA-type experiments using xMAP technology (Luminex, Tex., USA) are performed as briefly described in the Materials and Methods section and in [17]. We create two datasets: one for the construction of cell-type specific topology and another for the identification of the mechanisms of drug actions. […] For the purpose of this paper, we refer to “inhibitors” as the compounds for which we know the target and we use them in a concentration capable to block ˜95% of the downstream protein. Conversely, we refer to “drugs” as the compounds for which we assume no a-priori knowledge of their target. For each combination of cytokine and drug/inhibitor we collect cell lysates at 5 and 25 minutes. The two time points are pooled together in 1:1 ratio and the mixed lysates are used as an indicator of the “average early signaling response”. For each treatment we measure 13 protein phosphorylations that we consider “key protein activities” (raw data in FIG. 4). The key phosphorylation signals (listed in Materials and Methods) are chosen based on the availability of the reagents and quality controls performed at the early phases of the experimental setup. […]

HepG2 specific topology = assay: Drug-induced topology alterations: ILP fit of the HepG2 specific topology to drug-induced phosphoprotein data; details: for Drug effect on downstream reactions of the TGFα branch (TGFα→GRB2→SOS→RAS→PI3K and RAS→RAF1→MEK1/2→ERK1/2) / Drug effect on the JNK→c-JUN branch: reactions removed from HepG2 topology by ILP, Gefitinib 3 uM; for Effect on c-Jun signaling: summary statement in the personalized medicine section
From the text: Here, we describe how the Boolean model described in [18] can be reformulated as an ILP. Note that such a transformation was recently performed for a different problem, namely the satisfiability, by. A pathway is defined as a set of reactions i=1, . . . , nr and species j=1, . . . , ns. Each reaction has three corresponding index sets, namely the index set of signaling molecules Ri, inhibitors Ii, and “products” Pi (“product” can also correspond to the phosphorylation level of the protein). These sets are all subsets of the species index set (Ri,Ii,Pi⊂{1, . . . , ns}). Typically, these subsets have very small cardinality (few species), e.g., |Ri|=0,1,2;|Ii|=0,1;|Pi|=1,2;|Ri|+|Ii|=1,2. A reaction takes place if and only if all reagents and no inhibitors are present. If a reaction takes place, all products are formed. Note that reactions without products as well as reactions with neither reagents nor inhibitors will be excluded here.
While typically the set of species is known, the set of reactions is not known. Rather, only a superset of potential reactions is postulated. The goal of the proposed formulation is to find an optimal (in some sense) set of reactions out of such a superset. To that extent binary variables yi are introduced, indicating if a reaction is possible or not (yi=0 connection not present, yi=1 connection present).
A set of experiments is performed, indexed by the superscript k=1, . . . , ne. In each experiment a subset of species is introduced to the system and another subset is excluded from the system. These are summarized by the index sets M^k,1 and M^k,0 respectively (two for each experiment). In the proposed formulation, constants are introduced for all such species, respectively xj^k=1 and xj^k=0. […] In the experiments a third subset of the species is measured (index set M^k,2) and for the remaining species no information is available. In the proposed formulation for each of the experiments and each such species a binary decision variable xj^kε{0,1} is introduced indicating if the species j is present (xj^k=1) or not (xj^k=0) in the experiment k according to the model predictions. […] This has some computational advantages.
In the present study, our ILP formulation was utilized in two different circumstances. For the creation of the cell-type specific pathway using combinations of inhibitors and stimuli our ILP formulation included 27887 constraints and 9732 variables. For each drug case, where the reduced and optimized pathway was utilized, we had 2477 constraints and 947 variables.
For the identification of the drug effects we make use of the second dataset in HepG2s where drugs are applied together with the same set of ligands. In this case, the ILP formulation is being used with the HepG2 specific topology (topology obtained from the previous step) and not the generic map.

RAF/MEK/ERK pathway = details: human tumor cell lines, ref [33]; cited from earlier work
JNK1/2 kinases = details: kinase profiles, ref [32]; cited from earlier work
p38α = p38α (Homo sapiens, UniProt Q16539); details: refs [32],[45]; cited from earlier work
c-JUN (Ser63) = assay: Gefitinib dose response of c-JUN (Ser63) signal in HepG2 after IL1α (FIG. 3i); format: cell-based; details: Gefitinib 20 uM down to 27 nM, 45 min, IL1α 10 ng/ml, 30 min, linear fit
From the text: as §1

Chain of p38α (Q16539 whole entry): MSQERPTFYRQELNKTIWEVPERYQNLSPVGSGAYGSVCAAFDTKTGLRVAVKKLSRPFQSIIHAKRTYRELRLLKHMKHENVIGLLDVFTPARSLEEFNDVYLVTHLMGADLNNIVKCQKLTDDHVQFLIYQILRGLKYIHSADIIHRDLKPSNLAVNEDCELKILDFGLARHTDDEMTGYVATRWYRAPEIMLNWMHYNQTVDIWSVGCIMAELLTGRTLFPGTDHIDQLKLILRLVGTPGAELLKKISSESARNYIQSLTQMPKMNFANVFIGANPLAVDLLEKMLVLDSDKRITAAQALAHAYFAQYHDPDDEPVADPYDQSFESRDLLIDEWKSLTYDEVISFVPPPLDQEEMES

| SMILES | TGFα induced MEK1/2, ERK1/2, and AKT phosphosignals (HepG2 cells; Lapatinib 3 uM, 45 min before TGFα 100 ng/ml, early response (5 and 25 min), FIG. 3e) | Activation of AKT by the HGF and INS path (HepG2 cells; Lapatinib 3 uM, FIG. 3e) | Drug effect on the PI3K→...→AKT branch (HepG2 specific topology; HepG2 topology, ILP, Lapatinib 3 uM) | Drug effect on downstream reactions of the TGFα branch (TGFα→GRB2→SOS→RAS→PI3K and RAS→RAF1→MEK1/2→ERK1/2) (HepG2 specific topology; Lapatinib 3 uM, Erlotinib 1 uM) | Effect on c-Jun signaling (HepG2 specific topology) | HSP27 phosphorylation upon IL1α treatment (HepG2 cells; Sorafenib 3 uM, FIG. 3h) | MEK1 phosphorylation (HepG2 cells; Sorafenib 3 uM, FIG. 3h) | Drug effect on the p38 path (HepG2 specific topology; HepG2 topology, ILP, Sorafenib 3 uM) | Drug effect on the RAF→ERK1/2 reaction (HepG2 specific topology; HepG2 topology, network optimization, Sorafenib 3 uM) | Drug effect on the JNK→c-JUN branch (HepG2 specific topology; Erlotinib 1 uM, Sorafenib 3 uM) | Inhibition of activation of the RAF/MEK/ERK pathway (RAF/MEK/ERK pathway) | Affinity for the directly upstream JNK1/2 kinases (JNK1/2 kinases) | Target affinity to p38α (p38α) | IL1α- and (IL1α+TGFα)-induced cJUN activity (HepG2 cells; Gefitinib 3 uM, IL1α 10 ng/ml, FIG. 3f) | Activation of cJUN signal induced by the IL1α stimuli, dose response (c-JUN (Ser63)) | IκB-α signals upon IL1α and TNFα stimuli (HepG2 cells; Erlotinib 1 uM, FIG. 4) | Drug effect on the TRAF6→MAP3k7 reaction (HepG2 specific topology; HepG2 topology, ILP, Erlotinib 1 uM) |
| --- | --- | --- | --- | --- | --- | --- | --- | --- | --- | --- | --- | --- | --- | --- | --- | --- | --- |
| CS(=O)(=O)CCNCc1ccc(-c2ccc3ncnc(Nc4ccc(OCc5cccc(F)c5)c(Cl)c4)c3c2)o1 [Lapatinib] | blocks | cannot be blocked | not removed | complete removal of the downstream reactions of the TGFα branch | do not affect c-Jun signaling |  |  |  |  |  |  |  |  |  |  |  |  |
| CNC(=O)c1cc(Oc2ccc(NC(=O)Nc3ccc(Cl)c(C(F)(F)F)c3)cc2)ccn1 [Sorafenib] |  |  |  |  |  | complete HSP27 inhibition | reduces but does not block | affects the p38 path; also recorded: inhibition of the pathway downstream of p38 | does not remove the RAF→ERK1/2 reaction | blocks the JNK→c-JUN branch; also recorded: removal of the JNK→cJUN reaction | does not inhibit activation of the RAF/MEK/ERK pathway in all human tumor cell lines | no medium or high affinity | target affinity |  |  |  |  |
| COc1cc2ncnc(Nc3ccc(F)c(Cl)c3)c2cc1OCCCN1CCOCC1 [Gefitinib] |  |  |  | alters the topology in a very similar pattern as Lapatinib | affects c-Jun signaling as well as EGFR signaling |  |  |  |  | removal of the JNK→c-JUN branch; also recorded: removal of the JNK→cJUN reaction |  | no medium or high affinity |  | potent inhibition; also recorded: significant reduction of the cJUN activity; also recorded: previously unknown inhibition of cJUN in the IL1α pathway; also recorded: inhibits signaling downstream the Interleukin-1alpha (IL1α) pathway | can reduce the activation of cJUN signal; also recorded: does not follow a typical dose-response curve; also recorded: reduces cJUN activation |  |  |
| C#Cc1cccc(Nc2ncnc3cc(OCCOC)c(OCCOC)cc23)c1 [Erlotinib] |  |  |  | has the same effects as Gefitinib | do not affect c-Jun signaling |  |  |  |  | has the same effects as Gefitinib; also recorded: removal of the JNK→cJUN reaction |  | no medium or high affinity |  |  |  | inhibited in an IL1α-dependent but TNFα-independent manner | shows an effect in the TRAF6→MAP3k7 reaction |
